ChEMBL document CHEMBL3507680, “University of Dundee, Gates Library screen for HepG2 cell viability”

Experiment: Human HepG2 cell viability assay in 384 well format
Type: toxicity, cell-based
Design: dose 125 nL, time 70.5 hour; cytotoxicity at 70.5 h: concentration not given beside the values
Settings: HepG2 cells, read-out: Inhibition

COc1cccc(N2CCN(C(=O)c3noc4c3CCCCC4)CC2)c1
cytotoxicity at 70.5 h: -4.22%

COCCN1CCc2nc(SCc3ccc(F)cc3)[nH]c(=O)c2C1
cytotoxicity at 70.5 h: 28.7%

CCC(C)NS(=O)(=O)c1ccc(/C=C\c2onc(C)c2NC(C)=O)cc1 (stereo not given)
cytotoxicity at 70.5 h: -4.12%

CC(=O)Nc1c(C)noc1/C=C\c1ccc(S(=O)(=O)NC2CC2)cc1
cytotoxicity at 70.5 h: -1.71%

CN1C(=N)NC(=O)/C1=C/c1ccc(-c2ccc(Br)cc2)o1
cytotoxicity at 70.5 h: 1.84%

O=C(CCC(=O)Nc1nnc(C(F)(F)F)s1)NCC1CCCO1 (stereo not given)
cytotoxicity at 70.5 h: -0.323%

Cc1cc(=O)n2nc(-c3cccs3)nc2n1CC(=O)NC(C)C
cytotoxicity at 70.5 h: -24%

COCCNC(=O)c1ccc2c(=O)n3c(nc2c1)CCCC3
cytotoxicity at 70.5 h: -2.97%

CCc1nc(-c2ccc(NC(=O)N3CCC4(CC3)OCCO4)cc2)no1
cytotoxicity at 70.5 h: 3.68%

COc1ccccc1CNc1c(O)c(=O)c1=O
cytotoxicity at 70.5 h: -7.01%

COc1ccc(OC)c(CNc2c(O)c(=O)c2=O)c1
cytotoxicity at 70.5 h: -21.2%

CCOC(=O)CNC(=O)NCc1cccn1Cc1ccc(F)cc1
cytotoxicity at 70.5 h: 22.9%

CCOC(=O)CNC(=O)NCc1cccn1Cc1ccccc1C
cytotoxicity at 70.5 h: -17.6%

CCOC(=O)N1CCN(C(=O)CCn2cccc2)CC1
cytotoxicity at 70.5 h: 7.81%

CC(=O)N1N=C(COc2ccc3c(c2)OCO3)OC1c1ccc(C)cc1 (stereo not given)
cytotoxicity at 70.5 h: -14.5%

COCCn1c(-c2cccc(OC)c2)cnc1NC(=O)NC(C)C
cytotoxicity at 70.5 h: -2.89%

CCOc1ccc(C(=O)Nc2c(C)nc3ccccn3c2=O)cc1
cytotoxicity at 70.5 h: 19.8%

CCOc1ccc(C(=O)Nc2c(C)nc3cccc(C)n3c2=O)cc1
cytotoxicity at 70.5 h: -19.3%

COc1cnc(CSc2nnc(C)s2)cc1OCC(=O)NC(C)(C)C
cytotoxicity at 70.5 h: -7.68%

Cc1ccc2oc(SCC(N)=O)nc2n1
cytotoxicity at 70.5 h: -21.9%

Cc1n[nH]c2c1C(c1cc(F)cc(F)c1)SCC(=O)N2 (stereo not given)
cytotoxicity at 70.5 h: 17.9%

COc1ccc(C2CCCN2C(=O)c2cc(C(C)C)on2)cc1 (stereo not given)
cytotoxicity at 70.5 h: -9.05%

COc1cccc(CN2CCCC2c2cccc(F)c2)c1OC (stereo not given)
cytotoxicity at 70.5 h: -11.8%

COc1cc(NC(=O)N2CCCC2c2ccco2)cc(OC)c1 (stereo not given)
cytotoxicity at 70.5 h: -8.23%

Cc1[nH]c2nc(CNc3ccccc3Cl)nn2c(=O)c1C
cytotoxicity at 70.5 h: -10.8%

Cc1ccc(Cl)cc1NCc1nc2[nH]c(C)c(C)c(=O)n2n1
cytotoxicity at 70.5 h: -0.0581%

Cc1ccc(Cl)cc1NC(=O)Nc1c[nH]c(=O)[nH]c1=O
cytotoxicity at 70.5 h: 0.569%

Cc1ccc(NC(=O)Nc2c[nH]c(=O)[nH]c2=O)c(C)c1
cytotoxicity at 70.5 h: 11.8%

CCc1nnc(SCc2cc(=O)n3c4c(sc3n2)CCCC4)[nH]1
cytotoxicity at 70.5 h: -1.82%

Nc1nnc(SCc2cc(=O)n3c4c(sc3n2)CCCC4)[nH]1
cytotoxicity at 70.5 h: -3.97%

Cc1n[nH]c(C)c1CC(=O)NCCc1ccccc1
cytotoxicity at 70.5 h: 14.3%

CSc1ccc(CCNC(=O)Cc2c(C)n[nH]c2C)cc1
cytotoxicity at 70.5 h: -7.74%

CSc1ccc(CNC(=O)Cc2c(C)n[nH]c2C)cc1
cytotoxicity at 70.5 h: -6.16%

CCc1ccc(NC(=O)c2cnc(N3CCCC3)nc2C)cc1
cytotoxicity at 70.5 h: -2.19%

Cc1nc(N2CCCC2)ncc1C(=O)Nc1ccc(Br)cc1
cytotoxicity at 70.5 h: -2.71%

Cc1nc(-c2ccc(S(=O)(=O)N3CCC4(CC3)OCCO4)cc2)co1
cytotoxicity at 70.5 h: -7.29%

Cc1nc(-c2ccc(S(=O)(=O)N3CCOCC3)cc2)co1
cytotoxicity at 70.5 h: -6.53%

CCn1nc(C)c2ccn(CC(=O)NCCCOC)c(=O)c21
cytotoxicity at 70.5 h: -6.99%

Cc1nn(C)c2c(=O)n(CC(=O)NCc3ccccc3Cl)ccc12
cytotoxicity at 70.5 h: 8.11%

Cc1nn(C)c2c(=O)n(CC(=O)NCC3CCCO3)ccc12 (stereo not given)
cytotoxicity at 70.5 h: -4.99%

COc1ccc(NC(=O)C(c2ccc(OC)cc2)N2CCOCC2)cc1 (stereo not given)
cytotoxicity at 70.5 h: 0.848%

CC1=C(c2ccc(Cl)cc2)S(=O)(=O)N=C1N1CCc2ccccc21
cytotoxicity at 70.5 h: -2.07%

CC1=C(c2ccc(C(C)C)cc2)S(=O)(=O)N=C1N1CCc2ccccc21
cytotoxicity at 70.5 h: 33.6%

CCOc1nc2cnccc2n(CC(=O)NCc2ccc(C)cc2)c1=O
cytotoxicity at 70.5 h: -9.89%

CN(C)c1ccc(C(CNS(=O)(=O)c2cccs2)N2CCCC2)cc1 (stereo not given)
cytotoxicity at 70.5 h: -2.5%

COc1ccc(C2OC(COc3ccc(C)cc3)=NN2C(C)=O)cc1 (stereo not given)
cytotoxicity at 70.5 h: 0.8%

COc1ccc(NC(=O)c2nc3ccccc3n(C)c2=O)c(OC)c1
cytotoxicity at 70.5 h: -0.905%

Cc1cccc(C2CCCCCN2Cc2cn(C)nc2C)c1 (stereo not given)
cytotoxicity at 70.5 h: -9.15%

Cc1ccsc1C1CCCCCN1Cc1cn(C)nc1C (stereo not given)
cytotoxicity at 70.5 h: -13.5%

COc1cccc(CN2CCCCCC2c2cccs2)c1OC (stereo not given)
cytotoxicity at 70.5 h: -10.1%

CCS(=O)(=O)N1CCc2ccc(NC(=O)NC3CCCCC3)cc21
cytotoxicity at 70.5 h: -7.09%

CCS(=O)(=O)N1CCc2ccc(NC(=O)NCCc3ccccc3)cc21
cytotoxicity at 70.5 h: -6.1%

COC(=O)c1cccc(C(=O)N2CCN(c3cc(C)ccc3C)CC2)n1
cytotoxicity at 70.5 h: 0.723%

COC(=O)c1cccc(C(=O)N2CCN(c3cc(Cl)ccc3C)CC2)n1
cytotoxicity at 70.5 h: -2.22%

CCn1nc(C)c2ccn(CC(=O)NCC3CCCO3)c(=O)c21 (stereo not given)
cytotoxicity at 70.5 h: -5.94%

CCn1nc(C)c2ccn(CC(=O)NCCN3CCCCC3)c(=O)c21
cytotoxicity at 70.5 h: -5.13%

COCc1cnc2n1CCN(S(=O)(=O)c1c(C)nn(C)c1C)C2C (stereo not given)
cytotoxicity at 70.5 h: 29%

CC1c2ncc(COCC3CC3)n2CCN1S(=O)(=O)N(C)C (stereo not given)
cytotoxicity at 70.5 h: -1.15%

O=C(C1CCCO1)N1CCc2nnc(Cn3cccc3)n2CC1 (stereo not given)
cytotoxicity at 70.5 h: -7.61%

CC(C)Nc1nc2c(c(NC3CC3)n1)CCN(C1CCOCC1)CC2
cytotoxicity at 70.5 h: -3.76%

O=C(NC[C@]1(O)CN(Cc2ccccc2F)C[C@H]1O)c1ccccn1
cytotoxicity at 70.5 h: -62.9%

COc1cccc(-c2noc(C3CCN(Cc4cn(C)nc4C)C3)n2)c1 (stereo not given)
cytotoxicity at 70.5 h: -5.53%

Cn1cc(C(=O)N2CCCC(Cc3nccs3)C2)cn1 (stereo not given)
cytotoxicity at 70.5 h: -1.09%

Cc1cncc(C2CCCN(Cc3cccn3C)C2)n1 (stereo not given)
cytotoxicity at 70.5 h: 0.452%

CCCn1ccc(C(=O)N2CCOC(c3nc(-c4cccs4)no3)C2)n1 (stereo not given)
cytotoxicity at 70.5 h: 4.34%

CCn1cc(CN2CCCC(c3[nH]ncc3S(C)(=O)=O)C2)cn1 (stereo not given)
cytotoxicity at 70.5 h: 1.9%

Fc1ccc(CN2CCCC2c2cncc(-n3ccnc3)n2)cc1 (stereo not given)
cytotoxicity at 70.5 h: -1.28%

COCC(=O)N1CCC(c2cc(C(F)(F)F)n3ccnc3n2)CC1
cytotoxicity at 70.5 h: -8.3%

CC1CN(C)CCN1C(=O)c1ccn(-c2ccccc2Cl)n1 (stereo not given)
cytotoxicity at 70.5 h: 16.7%

c1cc(CN2CCCC2c2noc(C3CC3)n2)on1 (stereo not given)
cytotoxicity at 70.5 h: -15.8%

COc1c(C2CCCN2C(=O)c2cc(C)on2)c(C)nn1C (stereo not given)
cytotoxicity at 70.5 h: -8.13%

CNS(=O)(=O)c1ccc(CNC(=O)c2cccc(C)n2)cc1
cytotoxicity at 70.5 h: 16.9%

O=c1oc(-c2ccc(F)cc2)nn1CN1CCSCC1
cytotoxicity at 70.5 h: -15%

Cc1noc(C(C)C)c1C(=O)NCc1cccc(CN(C)C)c1
cytotoxicity at 70.5 h: -1.69%

CC1CN(Cc2ccccn2)CCN1c1ccc2nncn2n1 (stereo not given)
cytotoxicity at 70.5 h: -0.942%

CCc1nnc2n1CCN(C(=O)c1cc3cc(C)ccc3[nH]1)C2
cytotoxicity at 70.5 h: -13.6%

CCOc1cccc(CNC2CCCN(Cc3noc(C)n3)C2)c1 (stereo not given)
cytotoxicity at 70.5 h: -12.1%

CCc1nnc2n1CCN(C(=O)c1cc3ccccc3[nH]1)C2
cytotoxicity at 70.5 h: -7.28%

CN1CCN(C2CCN(CCOc3ccc(Cl)cc3)CC2)C1=O
cytotoxicity at 70.5 h: -6.64%

CN1CCN(C2CCN(CCOc3cccc(Cl)c3)CC2)C1=O
cytotoxicity at 70.5 h: -7.02%

CN1CCN(C2CCN(CCOc3ccc(C#N)cc3)CC2)C1=O
cytotoxicity at 70.5 h: -5.65%

CCc1nc(C2CCCN2CC(=O)Nc2nnc(C)s2)no1 (stereo not given)
cytotoxicity at 70.5 h: -13.4%

COc1c(C2CCCN2C(=O)c2cnc[nH]2)c(C)nn1C (stereo not given)
cytotoxicity at 70.5 h: -2.57%

CCN1CCN(C2CCN(CCOc3ccc(F)cc3)CC2)C1=O
cytotoxicity at 70.5 h: -11.7%

Cc1cnc(CN2CCN(c3ccc4nncn4n3)C(C)C2)cn1 (stereo not given)
cytotoxicity at 70.5 h: -15.4%

Cc1nc(CN2CCN(c3ccc4nncn4n3)C(C)C2)oc1C (stereo not given)
cytotoxicity at 70.5 h: -8.63%

COc1ccc(CNC(C)Cn2cccn2)cc1F (stereo not given)
cytotoxicity at 70.5 h: -1.59%

c1ccc(-c2nc(CN3CCCC3Cn3cccn3)no2)cc1 (stereo not given)
cytotoxicity at 70.5 h: 1.06%

COc1ccc(-n2ccc(C(=O)NCCN3CCCCCC3)n2)cc1
cytotoxicity at 70.5 h: -2.62%

O=C(Cc1cccc(F)c1)NCCNCc1cccnc1
cytotoxicity at 70.5 h: -4.1%

COc1cn(-c2ccccc2)nc1C(=O)NCCN1CCCC(C)C1 (stereo not given)
cytotoxicity at 70.5 h: -7.85%

O=C1CN(c2ccc(CNC(=O)NCC3CCOC3)cc2)CCN1 (stereo not given)
cytotoxicity at 70.5 h: -5.59%

CC1CCCN(CCNC(=O)c2ccn(-c3cccc(F)c3)n2)C1 (stereo not given)
cytotoxicity at 70.5 h: 1.27%

c1cc2n(n1)CC(CNCc1ccc(OC3CCCC3)nc1)CN2 (stereo not given)
cytotoxicity at 70.5 h: -14.1%

c1ccc(-c2nccc(CNC3CCc4ncnn4C3)n2)cc1 (stereo not given)
cytotoxicity at 70.5 h: -4.99%

COc1cccc(S(=O)(=O)NC(=O)CC2CCCO2)c1 (stereo not given)
cytotoxicity at 70.5 h: 21.5%

Cc1cc(C[S+]([O-])CC(=O)NCc2cccc(Cl)c2)no1 (stereo not given)
cytotoxicity at 70.5 h: -10.3%

O=C(Cc1ccc(F)cc1)NCCNCc1cccc(O)c1
cytotoxicity at 70.5 h: 0.177%

N#Cc1cccc(CNCCNC(=O)Cc2cccc(F)c2)c1
cytotoxicity at 70.5 h: 26.7%

c1ccc(Cc2noc(CN3CCCC3Cn3cccn3)n2)cc1 (stereo not given)
cytotoxicity at 70.5 h: -7.45%

CC(=O)NC(C)C(=O)NCc1ccc(N2CCNC(=O)C2)cc1 (stereo not given)
cytotoxicity at 70.5 h: -15.7%

COc1ccc(S(=O)(=O)NC(=O)COC2CCCCC2)cc1C
cytotoxicity at 70.5 h: -4.48%

COc1ccc(S(=O)(=O)NC(=O)COC2CCCCC2)cc1
cytotoxicity at 70.5 h: -7.04%

CCn1cnnc1C1CCN(C(=O)c2cccc(C)c2C)CC1
cytotoxicity at 70.5 h: 30.1%

CC(NC(=O)Cn1cccn1)c1ccc2c(c1)OCCO2 (stereo not given)
cytotoxicity at 70.5 h: -11.1%

CCn1cnnc1CNC(=O)N1CCN(c2ccccc2OC)CC1
cytotoxicity at 70.5 h: -9.83%

Cc1noc(CNc2ccc(C(=O)N3CCCC(C)C3)cc2C)n1 (stereo not given)
cytotoxicity at 70.5 h: -6.32%

O=C1NCCN1C1CCN(Cc2nc(-c3ccc(F)cc3)no2)CC1
cytotoxicity at 70.5 h: 25%

Cc1cc(C)n(CC2CN(CC(=O)NC3(C#N)CCCC3)CCO2)n1 (stereo not given)
cytotoxicity at 70.5 h: -3.7%

Cc1cc(C)n(CC2CN(CC(=O)NC(C3CC3)C3CC3)CCO2)n1 (stereo not given)
cytotoxicity at 70.5 h: -4.44%

COc1cc(CNC(C)Cn2cccn2)cc(Cl)c1OC (stereo not given)
cytotoxicity at 70.5 h: -4.38%

COc1cc(CNC(C)Cn2cccn2)cc2c1OCCO2 (stereo not given)
cytotoxicity at 70.5 h: -4.44%

CS(=O)(=O)N1C[C@H](C(=O)Nc2cccnc2)C[C@H]2OCC[C@H]21
cytotoxicity at 70.5 h: 6.21%

Cn1cccc1CN1CCC2(CC1)CC(Oc1cccnc1)C2
cytotoxicity at 70.5 h: 6.62%

CN(C)CCn1c2c(ccc1=O)CC(NCc1cccnc1)CC2 (stereo not given)
cytotoxicity at 70.5 h: -0.247%
